The source of these data is patent US7932086B2, “Commercially viable process for in vitro mass culture of Jatropha curcas” (Reliance Life Sciences Pvt. Ltd., priority 2007, dated 2011).

The assay has as its system Jatropha curcas elongated shoots. Nature of the assay: in vitro rooting of elongated shoots. The class given is cell-based. As to conditions: 4.9 μM in half strength Murashige & Skoog Basal Medium.

Take `O=C(O)CCCc1c[nH]c2ccccc12` [IBA, Indole-3-butyric acid]: the root formation result was “well-formed roots”.
